In ChEMBL document CHEMBL1146392, “Isolation of Diterpenoids of the Cladiellane Class from Gorgonians of the Genus Muricella” (J Nat Prod, 1997):
≈ marks a conversion by molar mass, not a printed value.

Experiments:
[1] = system: Artemia; assay: Toxicity in brine shrimp; type: organism-based; conditions: in vivo
[2] = system: A549; assay: Cytotoxicity against human A549 cells; type: functional; conditions: read-out: ED50 (the source's name)
[3] = system: SK-OV-3; assay: Cytotoxicity against human SKOV3 cells; type: functional; conditions: read-out: ED50 (the source's name)
[4] = system: SK-MEL-2; assay: Cytotoxicity against human SK-MEL-2 cells; type: functional; conditions: read-out: ED50 (the source's name)
[5] = system: HCT-15; assay: Cytotoxicity against human HCT15 cells; type: functional; conditions: read-out: ED50 (the source's name)

| SMILES | LD50 [1] [ppm] | further results |
| --- | --- | --- |
| CC1=CC[C@H](C(C)C)[C@@H]2[C@H]1[C@@H]1C/C(C)=C/CC[C@@](C)(O)[C@H]2O1 | 39.2 |  |
| CC(=O)O[C@]1(C)CC/C=C(\C)C[C@@H]2O[C@H]1[C@H]1[C@@H]2C(C)=CC[C@@H]1C(C)C | 0.3 | EC50 [2]: 12.7 µg/mL (≈ 36.7 µM); EC50 [3]: 21.3 µg/mL (≈ 61.5 µM); EC50 [4]: 11.6 µg/mL (≈ 33.5 µM); EC50 [5]: 13.9 µg/mL (≈ 40.1 µM) |
| CC(=O)O[C@@H]1C=C(C)[C@H]2[C@@H]([C@H]1C(C)C)[C@@H]1O[C@H]2C/C(C)=C/CC[C@@]1(C)OC(C)=O [CALICOPHIRIN B] | 1 |  |
| C=C1CC[C@H](C(C)C)[C@@H]2[C@H]1[C@@H]1C/C(C)=C/CC[C@@](C)(OC(C)=O)[C@H]2O1 [CLADIELLIN] | 1.3 |  |
| CC1=C[C@@H](O)[C@H](C(C)(C)O)[C@@H]2[C@H]1[C@@H]1C/C(C)=C/CC[C@@](C)(O)[C@H]2O1 | 48 |  |
| C=C1C[C@@H]2O[C@@H]([C@H]3[C@@H]2C(C)=C[C@@H](OC(C)=O)[C@@H]3C(C)(C)OC(C)=O)[C@](C)(OC(C)=O)CC[C@@H]1OC(C)=O [ASTROGORGIN] | 1.8 |  |
| CC(=O)O[C@@H]1C=C(C)[C@H]2[C@@H]([C@H]1C(C)(C)OC(C)=O)[C@@H]1O[C@H]2C/C(C)=C/CC[C@@]1(C)OC(C)=O [OPHIRIN] | 8.7 |  |
